Measured values from ChEMBL document CHEMBL1201862, “PubChem BioAssay data set” (2004).
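Five concentrations, 48 hours, 96-well plates. GI50: concentration for 50% inhibition of growth.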 Calls of active or inactive are those of the source. Cut-off read from the data, not from the text of the source: active = GI50 up to about 1.1 µM and inactive = higher.

Assays:
Experiment in all cases: NCI anticancer screen, dose series, 48 h
A498 = tested on: A498
COLO 205 = tested on: COLO 205
EKVX = tested on: EKVX
HCT-116 = tested on: HCT-116
HOP-62 = tested on: HOP-62
HOP-92 = tested on: HOP-92
HT-29 = tested on: HT-29
IGROV-1 = tested on: IGROV-1
K562 = tested on: K562
MCF7 = tested on: MCF7
NCI-H23 = tested on: NCI-H23
NCI-H522 = tested on: NCI-H522
OVCAR-3 = tested on: OVCAR-3
OVCAR-5 = tested on: OVCAR-5
OVCAR-8 = tested on: OVCAR-8
PC-3 = tested on: PC-3
SF-295 = tested on: SF-295
SR = tested on: SR
TK-10 = tested on: TK-10
UACC-62 = tested on: UACC-62

NC(=O)C(=CNC(=S)Nc1ccc(Cl)c(Cl)c1)C(N)=O
GI50 (A498): > 61.4 µM (inactive)
GI50 (COLO 205): 42.8 µM (inactive)
GI50 (EKVX): 65.9 µM (inactive)
GI50 (HCT-116): > 78.2 µM (inactive)
GI50 (HOP-62): > 100 µM (inactive)
GI50 (HOP-92): 33.1 µM (inactive)
GI50 (HT-29): 46.3 µM (inactive)
GI50 (IGROV-1): 92.7 µM (inactive)
GI50 (K562): > 70 µM (inactive)
GI50 (MCF7): > 52 µM (inactive)
GI50 (NCI-H23): > 92.3 µM (inactive)
GI50 (NCI-H522): 17.5 µM (inactive)
GI50 (OVCAR-3): > 100 µM (inactive)
GI50 (OVCAR-5): > 100 µM (inactive)
GI50 (OVCAR-8): > 88.3 µM (inactive)
GI50 (PC-3): > 66.4 µM (inactive)
GI50 (SF-295): > 85.7 µM (inactive)
GI50 (SR): > 71.3 µM (inactive)
GI50 (TK-10): > 77.8 µM (inactive)
GI50 (UACC-62): 49.8 µM (inactive)

COc1cc(O)c2c(c1)C(O)C(O)CC1OC1C(=O)/C=C/CC(C)OC2=O (stereo not given)
GI50 (A498): 5.42 µM (inactive)
GI50 (COLO 205): 0.0877 µM (active)
GI50 (EKVX): 8.53 µM (inactive)
GI50 (HCT-116): 1.11 µM (active)
GI50 (HOP-62): 18 µM (inactive)
GI50 (HOP-92): 0.354 µM (active)
GI50 (HT-29): 0.0794 µM (active)
GI50 (IGROV-1): 2.48 µM (inactive)
GI50 (K562): 1.7 µM (inactive)
GI50 (MCF7): 4.07 µM (inactive)
GI50 (NCI-H23): 2.1 µM (inactive)
GI50 (NCI-H522): 1.52 µM (inactive)
GI50 (OVCAR-3): 2.74 µM (inactive)
GI50 (OVCAR-5): 12.2 µM (inactive)
GI50 (OVCAR-8): 4.13 µM (inactive)
GI50 (PC-3): 11.6 µM (inactive)
GI50 (SF-295): 15.6 µM (inactive)
GI50 (SR): 2.7 µM (inactive)
GI50 (TK-10): 2.28 µM (inactive)
GI50 (UACC-62): 0.0904 µM (active)

Cc1c2oc3c(C)cnc(C(=O)NC4C(=O)NC(C(C)C)C(=O)N5CCCC5C(=O)N(C)CC(=O)N(C)C(C(C)C)C(=O)OC4C)c3nc-2c(C(=O)NC2C(=O)NC(C(C)C)C(=O)N3CCCC3C(=O)N(C)CC(=O)N(C)C(C(C)C)C(=O)OC2C)c(N)c1=O (stereo not given)
GI50 (A498): 6.18 µM (inactive)
GI50 (COLO 205): 1.8 µM (inactive)
GI50 (EKVX): 15.4 µM (inactive)
GI50 (HCT-116): 0.396 µM (active)
GI50 (HOP-62): 3.05 µM (inactive)
GI50 (HOP-92): 2.84 µM (inactive)
GI50 (HT-29): 1.29 µM (inactive)
GI50 (IGROV-1): 0.687 µM (active)
GI50 (K562): 0.231 µM (active)
GI50 (MCF7): 0.805 µM (active)
GI50 (NCI-H23): 3.24 µM (inactive)
GI50 (NCI-H522): 0.673 µM (active)
GI50 (OVCAR-3): 10.4 µM (inactive)
GI50 (OVCAR-5): 13.2 µM (inactive)
GI50 (OVCAR-8): 5.57 µM (inactive)
GI50 (PC-3): 2.67 µM (inactive)
GI50 (SF-295): 5.45 µM (inactive)
GI50 (SR): 0.575 µM (active)
GI50 (TK-10): 22.9 µM (inactive)
GI50 (UACC-62): 1.32 µM (inactive)

C/C=C1/CN2CCC34c5ccccc5N(C)C23C2CC1C4(C(=O)OC)C(OC(C)=O)O2 (stereo not given)
GI50 (A498): > 100 µM (inactive)
GI50 (COLO 205): > 100 µM (inactive)
GI50 (EKVX): > 100 µM (inactive)
GI50 (HCT-116): > 100 µM (inactive)
GI50 (HOP-62): > 100 µM (inactive)
GI50 (HOP-92): > 100 µM (inactive)
GI50 (HT-29): > 100 µM (inactive)
GI50 (IGROV-1): > 100 µM (inactive)
GI50 (K562): > 100 µM (inactive)
GI50 (MCF7): > 100 µM (inactive)
GI50 (NCI-H23): > 100 µM (inactive)
GI50 (NCI-H522): > 100 µM (inactive)
GI50 (OVCAR-3): > 100 µM (inactive)
GI50 (OVCAR-5): > 100 µM (inactive)
GI50 (OVCAR-8): > 100 µM (inactive)
GI50 (PC-3): > 100 µM (inactive)
GI50 (SF-295): > 100 µM (inactive)
GI50 (SR): > 100 µM (inactive)
GI50 (TK-10): > 100 µM (inactive)
GI50 (UACC-62): > 100 µM (inactive)

C#CCOC(=O)C(N)CC(N)=O (stereo not given)
GI50 (A498): > 100 µM (inactive)
GI50 (COLO 205): > 100 µM (inactive)
GI50 (EKVX): > 100 µM (inactive)
GI50 (HCT-116): > 100 µM (inactive)
GI50 (HOP-62): > 100 µM (inactive)
GI50 (HOP-92): > 100 µM (inactive)
GI50 (HT-29): > 31.6 µM (inactive)
GI50 (IGROV-1): > 100 µM (inactive)
GI50 (K562): 21.2 µM (inactive)
GI50 (MCF7): > 100 µM (inactive)
GI50 (NCI-H23): > 100 µM (inactive)
GI50 (NCI-H522): > 100 µM (inactive)
GI50 (OVCAR-3): > 100 µM (inactive)
GI50 (OVCAR-5): > 100 µM (inactive)
GI50 (OVCAR-8): > 100 µM (inactive)
GI50 (PC-3): > 100 µM (inactive)
GI50 (SF-295): > 100 µM (inactive)
GI50 (SR): > 100 µM (inactive)
GI50 (TK-10): > 100 µM (inactive)
GI50 (UACC-62): > 100 µM (inactive)
